Experimental findings from PubChem BioAssay AID2305 (GlaxoSmithKline (GSK), 2010) are described below.

As a reminder, the pIC50 is −log10 of the IC50, conventionally taken in molar units. Read a low pIC50 as a high IC50.

pIC50: −log10 of the molar value.

In this assay the test system is P. falciparum 3D7 growth, pLDH absorbance. Kind of assay: P. falciparum 3D7 growth inhibition, dose response, strain 3D7 (AID 2305).

`Cc1cc(N(C)C)nc(Nc2ccc(NC(=O)c3ccc(Br)o3)cc2)n1` had a pIC50 of 5.98.

`N#Cc1ccc(N[C@@H](CC2CCCCC2)C(=O)NCc2cc(F)c(F)cc2F)c2ccccc12`: the pIC50 was 6.02. The pIC50 values of the last two compounds are within 0.2 log units of each other.

`CN1CCC(NCc2cccc(-c3ccc(S(=O)(=O)NCc4ccccc4)c(F)c3)c2)CC1` showed a pIC50 of 6.48.

`O=C(NC1CCN(CCC[C@]2(c3ccc(Cl)c(Cl)c3)CCCN(C(=O)c3ccccc3)C2)CC1)c1ccc(Cl)cc1` had a pIC50 of 6.05. Compared with the last compound, the pIC50 is 0.43 log units lower.

Consider `CC(OC(=O)c1ccc(C(=O)NCC2CC2)cc1)C(C)(C)C` (centres undefined), for which the pIC50 is 6.10.

`COc1ccccc1CNCC(O)c1cc(C(F)(F)F)ccc1C(F)(F)F` (centres undefined): the pIC50 was 6.03.

Consider `Cc1ccc(Cn2c(N3CCC(C(=O)NCc4ccccn4)CC3)nc3ccccc32)cc1`, for which the pIC50 is 6.39.

The compound `Cc1cccc(Nc2nc(N)c3ccccc3n2)c1` gave a pIC50 of 6.24.

Consider `Cc1cc(N(C)C)nc(Nc2ccc(NC(=O)c3c(F)cccc3Cl)cc2)n1`, for which the pIC50 was 5.96. This pIC50 is 0.28 log units lower than that of the compound before.

In turn, `Cc1ccc(-c2cc(C(=O)Nc3ccc(S(=O)(=O)N4CC(C)OC(C)C4)cc3)[nH]n2)c(O)c1` (centres undefined) showed a pIC50 of 6.21. Against the preceding compound, the pIC50 is 0.25 log units higher.

Compound `O=C(/C=C/c1ccc(Cl)c(Cl)c1)NCCCCCN1CCCN(C(=O)Nc2cc(F)cc(F)c2)CC1` showed a pIC50 of 6.11.

Take `CCNc1cc(C(=O)N[C@@H](Cc2ccoc2)[C@H](O)CNC(C)CCCC(C)C)cc(N2CCCCS2(=O)=O)c1` (some centres undefined): the pIC50 was 6.21. This pIC50 and that of the compound before are within 0.2 log units of each other.

In the case of `O=C(NCCCCCN1CCC(c2c[nH]c3ccccc23)CC1)Nc1ccc(I)c(Cl)c1`, the pIC50 was 6.01.

Consider `N#Cc1ccc2c(c1)CCN(CCC1CCC(NC(=O)/C=C/c3ccc(F)c4ccccc34)CC1)CC2` (centres undefined), for which the pIC50 is 6.08.

The compound `N#Cc1ccc(-c2cnc3ccc(NCCc4cccnc4)nn23)cc1` had a pIC50 of 6.59. This pIC50 lies 0.51 log units higher than the previous one.

Turning to `CCC(C)(C)c1ccc2nc(N)nc(N)c2c1C`, the pIC50 was 8.00.

Consider `c1ccc2ncc(CNCCCCCCCCNCc3cnc4ccccc4c3)cc2c1`, for which the pIC50 was 6.07.

In turn, `CC(C)Nc1cc(C(=O)N[C@@H](Cc2ccccc2)[C@H](O)CNC2CCCCC2)cc(N2CCCCS2(=O)=O)c1` gave a pIC50 of 7.00. Compared with the last compound, the pIC50 is 0.93 log units higher.

`CC(=O)N1N=C(c2ccc(F)cc2)Sc2c1nc(-c1ccccc1)n2C(C)=O` had a pIC50 of 6.19.

The compound `Cc1nc2nc(N)nc(N)c2c(C)c1Cc1ccc([N+](=O)[O-])cc1` had a pIC50 of 6.36.

`CS(=O)(=O)Nc1ccc2[nH]cc(C3CCN(CC(O)C4CCN(C(=O)/C=C/c5ccc(Cl)c(Cl)c5)CC4)CC3)c2c1` (centres undefined) had a negative-log IC50 (pIC50) of 5.75. Against the preceding compound, the pIC50 is 0.61 log units lower.

In the case of `NC1=NC2(CCCCC2)N(OCCOc2ccc(Cc3ccccc3)cc2)C(N)=N1`, the pIC50 is 5.95.

In turn, `CN(C)Cc1cccc2[nH]c(-c3csc(Cc4cc(Cl)ccc4OCc4ccccc4)n3)nc12` showed a pIC50 of 5.95.

Compound `Cc1cc(NN=Cc2cccc(F)c2)c2cccc(C)c2n1` showed a pIC50 of 6.11.

With `CC1CCC(C[C@@H](C(=O)N[C@@H](CCC(=O)N2CCCCC2)C(=O)Nc2nccs2)[C@H](C(C)C)N(O)C=O)CC1` (some centres undefined), the pIC50 is 6.21.

In turn, `O=C(NCCCN1CCOCC1)c1csc(Nc2ccc(Cl)c(Cl)c2)n1` gave a pIC50 of 6.04.

`C=C[C@H]1CN(CCCCCCC)CC[C@H]1CC(=O)Nc1cnnc2ccc(OC)cc12` showed a pIC50 of 6.28. This pIC50 is 0.24 log units higher than that of the compound before.

Regarding `COc1ccc(NC(=O)[C@H](Cc2ccccc2)Nc2nc(NCCN3CCCC3)ncc2C)cc1`, the negative logarithm of the IC50 (pIC50) was 6.00.

For the compound `O=C(Nc1ccc(-c2nc3ccccc3[nH]2)cc1)C1CCCN(CC2CC2)C1` (centres undefined), the pIC50 was 6.02.

Take `Cc1ccc(NC(=O)c2ccc3ncccc3c2)cc1OC1CCN(Cc2ccc(F)cc2)CC1`: the pIC50 was 6.03.

Take `COc1ccc(O)c(C(=O)NCCc2ccc(OC)c(-c3ccc(C(C)(C)C)cc3)c2)c1`: the negative logarithm of the IC50 (pIC50) is 5.99.

As for `COc1c(C2CCN(CCCCNC(=O)c3ccc(-c4ccc(C#N)cc4)c(O)c3)CC2)ccc2c1CCCC2`, the pIC50 is 6.70.

`O=C(Nc1ccc(Cl)cc1)Nc1cccc(-c2cccc(-c3nc4ccc(C(F)(F)F)cc4[nH]3)c2)c1` had a pIC50 of 6.64.

The compound `O=C(c1ccc(-c2ccc(-c3nc4ccccc4[nH]3)s2)cc1)N1CCCCC1CN1CCC(O)C1` (centres undefined) had a pIC50 of 5.98.

On to `Cc1noc(C)c1-c1ccc2c(Nc3ccc(Cl)cc3)c(C(N)=O)cnc2c1`, for which the pIC50 is 6.08.

`Cc1cc(N[C@@H](Cc2ccccc2)C(=O)NCc2cccc(F)c2)nc(Nc2ccccc2)n1` gave a pIC50 of 6.03.

In the case of `Cc1cc(C2CCN(CCCCNC(=O)c3ccc(-c4ccc(C(F)(F)F)cc4)cc3)CC2)c(C)cc1OCCO`, the pIC50 is 6.06.

The compound `c1cncc(CCNCc2ccc(-c3ccc(CNC4Cc5ccccc5C4)cc3)cc2)c1` showed a pIC50 of 5.96.

With `CC(C)COc1ccc(Cl)cc1Cc1ccc(-c2nc3ccc(Cl)cc3[nH]2)o1`, the pIC50 was 6.03.

With `Cc1cc(N)nc2cc(CNCCc3ccccc3Br)ccc12`, the pIC50 was 6.89.

`CC1CCN(Cc2ccc(NC(=O)c3cc4ccc5cccnc5c4[nH]3)cc2)CC1` gave a negative-log IC50 (pIC50) of 6.11. Compared with the last compound, the pIC50 is 0.78 log units lower.

As to `CCOC(=O)c1c(C)n(C2CCCCC2)c2cc(Br)c(O)cc12`, the pIC50 was 6.09. The pIC50 values of the last two compounds are within 0.2 log units of each other.

In turn, `COc1ccc(NC(=O)c2cc(-c3ccc(NC(C)=O)cc3)cnc2N)cc1` showed a pIC50 of 6.09.

For the compound `O=C(Nc1cccc(-c2ccc(-c3nc4ccccc4[nH]3)cc2)c1)c1cccnc1`, the pIC50 is 5.98.
